# Data reported in US20040063662A1, “Selenophene anti-tumor agents” (priority 1996, published 2004).
# What was measured:
# HCT-116 = experiment: NCI human tumor cell panel: HCT-116 (Colon Cancer); format: cell-based; conditions: HCT-116, Colon Cancer
# ACHN = experiment: NCI human tumor cell panel: ACHN (Renal Cancer); format: cell-based; conditions: Renal Cancer
# OVCAR-5 = experiment: NCI human tumor cell panel: OVCAR-5 (Ovarian Cancer); format: cell-based; conditions: OVCAR-5, Ovarian Cancer
# EKVX = experiment: NCI human tumor cell panel: EKVX (Non-Small Cell Lung Cancer); format: cell-based; conditions: Non-Small Cell Lung Cancer
# OVCAR-8 = experiment: NCI human tumor cell panel: OVCAR-8 (Ovarian Cancer); format: cell-based; conditions: OVCAR-8, Ovarian Cancer
# IGROV1 = experiment: NCI human tumor cell panel: IGROV1 (Ovarian Cancer); format: cell-based; conditions: IGROV-1, IGROV1, Ovarian Cancer
# UACC-257 = experiment: NCI human tumor cell panel: UACC-257 (Melanoma); format: cell-based; conditions: UACC-257, Melanoma
# A498 = experiment: NCI human tumor cell panel: A498 (Renal Cancer); format: cell-based; conditions: A498, Renal Cancer
# SW-620 = experiment: NCI human tumor cell panel: SW-620 (Colon Cancer); format: cell-based; conditions: SW-620, Colon Cancer
# SNB-75 = experiment: NCI human tumor cell panel: SNB-75 (CNS Cancer); format: cell-based; conditions: SNB-75, CNS Cancer
# HOP-62 = experiment: NCI human tumor cell panel: HOP-62 (Non-Small Cell Lung Cancer); format: cell-based; conditions: HOP-62, Non-Small Cell Lung Cancer
# PC-3 = experiment: NCI human tumor cell panel: PC-3 (Prostate Cancer); format: cell-based; conditions: PC-3, Prostate Cancer
# KM12 = experiment: NCI human tumor cell panel: KM12 (Colon Cancer); format: cell-based; conditions: KM12, Colon Cancer
# SR = experiment: NCI human tumor cell panel: SR (Leukemia); format: cell-based; conditions: Leukemia
# MCF7/ADR-RES = experiment: NCI human tumor cell panel: MCF7/ADR-RES (Breast Cancer); format: cell-based; conditions: Breast Cancer
# HT29 = experiment: NCI human tumor cell panel: HT29 (Colon Cancer); format: cell-based; conditions: HT-29, HT29, Colon Cancer
# MOLT-4 = experiment: NCI human tumor cell panel: MOLT-4 (Leukemia); format: cell-based; conditions: MOLT-4, Leukemia
# HOP-92 = experiment: NCI human tumor cell panel: HOP-92 (Non-Small Cell Lung Cancer)
# NCI-H460 = experiment: NCI human tumor cell panel: NCI-H460 (Non-Small Cell Lung Cancer); format: cell-based; conditions: NCI-H460, Non-Small Cell Lung Cancer
# BT-549 = experiment: NCI human tumor cell panel: BT-549 (Breast Cancer); format: cell-based; conditions: BT-549, Breast Cancer
# UACC-62 = experiment: NCI human tumor cell panel: UACC-62 (Melanoma); format: cell-based; conditions: UACC-62, Melanoma
# TK-10 = experiment: NCI human tumor cell panel: TK-10 (Renal Cancer); format: cell-based; conditions: TK-10, Renal Cancer
# SN12C = experiment: NCI human tumor cell panel: SN12C (Renal Cancer); format: cell-based; conditions: Renal Cancer
# OVCAR-4 = experiment: NCI human tumor cell panel: OVCAR-4 (Ovarian Cancer); format: cell-based; conditions: OVCAR-4, Ovarian Cancer, read-out: Log10 TGI (converted)
# 786-0 = experiment: NCI human tumor cell panel: 786-0 (Renal Cancer); format: cell-based; conditions: 786-0, Renal Cancer
# SF-295 = experiment: NCI human tumor cell panel: SF-295 (CNS Cancer); format: cell-based; conditions: SF-295, CNS Cancer
# HS 578T = experiment: NCI human tumor cell panel: HS 578T (Breast Cancer); format: cell-based; conditions: Breast Cancer
# HCT-15 = experiment: NCI human tumor cell panel: HCT-15 (Colon Cancer); format: cell-based; conditions: HCT-15, Colon Cancer
# A549/ATCC = experiment: NCI human tumor cell panel: A549/ATCC (Non-Small Cell Lung Cancer); format: cell-based; conditions: Non-Small Cell Lung Cancer
# LOX IMVI = experiment: NCI human tumor cell panel: LOX IMVI (Melanoma); format: cell-based; conditions: Melanoma
# MALME-3M = experiment: NCI human tumor cell panel: MALME-3M (Melanoma); format: cell-based; conditions: MALME-3M, Melanoma
# K-562 = experiment: NCI human tumor cell panel: K-562 (Leukemia); format: cell-based; conditions: K562, K-562, Leukemia
# NCI-H23 = experiment: NCI human tumor cell panel: NCI-H23 (Non-Small Cell Lung Cancer); format: cell-based; conditions: NCI-H23, Non-Small Cell Lung Cancer
# [1] = read-out: Log10 GI50 (converted)
# [2] = read-out: Log10 TGI (converted)
smiles,measurement,setting,value
O=Cc1ccc(-c2ccc(-c3ccc(C=O)s3)[se]2)s1 [NSC 675345],GI50,HCT-116; [1],4.07 µM
same,IC (TGI),HCT-116; [2],> 100 µM
same,GI50,ACHN; [1],77.6 µM
same,IC (TGI),ACHN; [2],> 100 µM
same,GI50,OVCAR-5; [1],1.55 µM
same,IC (TGI),OVCAR-5; [2],5.37 µM
same,GI50,EKVX; [1],> 100 µM
same,IC (TGI),EKVX; [2],> 100 µM
same,GI50,OVCAR-8; [1],> 100 µM
same,IC (TGI),OVCAR-8; [2],> 100 µM
same,GI50,IGROV1; [1],4.37 µM
same,IC (TGI),IGROV1; [2],22.9 µM
same,GI50,UACC-257; [1],1.38 µM
same,IC (TGI),UACC-257; [2],> 100 µM
same,GI50,A498; [1],0.479 µM
same,IC (TGI),A498; [2],1.55 µM
same,GI50,SW-620; [1],38 µM
same,IC (TGI),SW-620; [2],> 100 µM
same,GI50,SNB-75; [1],52.5 µM
same,IC (TGI),SNB-75; [2],> 100 µM
same,GI50,HOP-62; [1],47.9 µM
same,IC (TGI),HOP-62; [2],> 100 µM
same,GI50,PC-3; [1],> 100 µM
same,IC (TGI),PC-3; [2],> 100 µM
same,GI50,KM12; [1],> 100 µM
same,IC (TGI),KM12; [2],> 100 µM
same,GI50,SR; [1],> 100 µM
same,IC (TGI),SR; [2],> 100 µM
same,GI50,MCF7/ADR-RES; [1],> 100 µM
same,IC (TGI),MCF7/ADR-RES; [2],> 100 µM
same,GI50,HT29; [1],> 100 µM
same,IC (TGI),HT29; [2],> 100 µM
same,GI50,MOLT-4; [1],> 100 µM
same,IC (TGI),MOLT-4; [2],> 100 µM
same,GI50,"HOP-92; HOP-92, read-out: Log10 GI50 (converted)",14.5 µM
same,IC (TGI),"HOP-92; HOP-92, read-out: Log10 TGI",55 µM
same,GI50,NCI-H460; [1],0.813 µM
same,IC (TGI),NCI-H460; [2],> 100 µM
same,GI50,BT-549; [1],> 100 µM
same,IC (TGI),BT-549; [2],> 100 µM
same,GI50,UACC-62; [1],0.347 µM
same,IC (TGI),UACC-62; [2],2.82 µM
same,GI50,TK-10; [1],> 100 µM
same,IC (TGI),TK-10; [2],> 100 µM
same,GI50,SN12C; [1],0.257 µM
same,IC (TGI),SN12C; [2],1.66 µM
same,IC (TGI),OVCAR-4,> 100 µM
same,GI50,786-0; [1],11 µM
same,IC (TGI),786-0; [2],> 100 µM
same,GI50,SF-295; [1],38.9 µM
same,IC (TGI),SF-295; [2],> 100 µM
same,GI50,HS 578T; [1],67.6 µM
same,IC (TGI),HS 578T; [2],> 100 µM
same,GI50,HCT-15; [1],> 100 µM
same,IC (TGI),HCT-15; [2],> 100 µM
same,GI50,A549/ATCC; [1],> 100 µM
same,IC (TGI),A549/ATCC; [2],> 100 µM
same,GI50,LOX IMVI; [1],> 100 µM
same,IC (TGI),LOX IMVI; [2],> 100 µM
same,GI50,MALME-3M; [1],> 100 µM
same,IC (TGI),MALME-3M; [2],> 100 µM
same,GI50,K-562; [1],30.9 µM
same,IC (TGI),K-562; [2],> 100 µM
same,GI50,NCI-H23; [1],21.9 µM
same,IC (TGI),NCI-H23; [2],> 100 µM
